Consider 28 compounds from patent US20070208005A1, “TETRAHYDROBENZAZEPINES AS ANTAGONISTS AND/OR REVERSE AGONISTS OF THE HISTAMINE H3 RECEPTOR” (priority 2004, published 2007).

Each structure is given as a SMILES string.

The test deals with T1, histamine H3 receptor (Homo sapiens, UniProt Q9Y5N1).
T1 construct: expressed in transfected cells; host or cells: CHO K1 cells (pSwitch/pGene GeneSwitch system, mifepristone-induced), clone 3H3; membranes
T1 sequence (Q9Y5N1 whole entry): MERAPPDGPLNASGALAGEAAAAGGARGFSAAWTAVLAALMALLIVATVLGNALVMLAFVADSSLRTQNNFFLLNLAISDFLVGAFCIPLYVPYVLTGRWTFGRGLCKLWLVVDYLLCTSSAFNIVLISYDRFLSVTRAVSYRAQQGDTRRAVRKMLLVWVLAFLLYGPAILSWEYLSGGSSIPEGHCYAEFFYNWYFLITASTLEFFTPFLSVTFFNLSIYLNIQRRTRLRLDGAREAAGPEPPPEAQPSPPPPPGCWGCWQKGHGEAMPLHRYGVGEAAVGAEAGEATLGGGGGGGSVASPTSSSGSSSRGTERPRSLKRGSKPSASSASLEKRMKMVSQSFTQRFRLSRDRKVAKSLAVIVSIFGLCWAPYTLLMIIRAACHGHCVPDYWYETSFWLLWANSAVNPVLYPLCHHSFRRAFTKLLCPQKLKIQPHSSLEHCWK
The experiment in a line: Histamine H3 functional antagonist assay ([35S]-GTPγS SPA on membranes of H3 cells). It is filed as biochemical. To be noted: membrane prepared from cultured H3 cells (CHO K1, human H3); histamine at EC80; averages of a number of experiments; read-out: functional pKi (fpKi), H3 functional antagonist assay (converted). The text has this:
A membrane preparation containing histamine H3 receptors may be prepared in accordance with the following procedures:
(i) Generation of Histamine H3 Cell Line
DNA encoding the human histamine H3 gene (Huvar, A. et al. (1999) Mol. Pharmacol. 55(6), 1101-1107) was cloned into a holding vector, pcDNA3.1 TOPO (InVitrogen) and its cDNA was isolated from this vector by restriction digestion of plasmid DNA with the enzymes BamH1 and Not-1 and ligated into the inducible expression vector pGene (InVitrogen) digested with the same enzymes. The GeneSwitch™ system (a system where in transgene expression is switched off in the absence of an inducer and switched on in the presence of an inducer) was performed as described in U.S. Pat. Nos. 5,364,791; 5,874,534; and 5,935,934. Ligated DNA was transformed into competent DH5α E. coli host bacterial cells and plated onto Luria Broth (LB) agar containing Zeocin™ (an antibiotic which allows the selection of cells expressing the sh ble gene which is present on pGene and pSwitch) at 50 μg ml^−1. Colonies containing the re-ligated plasmid were identified by restriction analysis. DNA for transfection into mammalian cells was prepared from 250 ml cultures of the host bacterium containing the pGeneH3 plasmid and isolated using a DNA preparation kit (Qiagen Midi-Prep) as per manufacturers guidelines (Qiagen). CHO K1 cells previously transfected with the pSwitch regulatory plasmid (InVitrogen) were seeded at 2×10e6 cells per T75 flask in Complete Medium, containing Hams F12 (GIBCOBRL, Life Technologies) medium supplemented with 10% v/v dialysed foetal bovine serum, L-glutamine, and hygromycin (100 μg ml^−1), 24 hours prior to use. Plasmid DNA was transfected into the cells using Lipofectamine plus according to the manufacturers guidelines (InVitrogen). 48 hours post transfection cells were placed into complete medium supplemented with 500 μg ml^−1 Zeocin™.
10-14 days post selection 10 nM Mifepristone (InVitrogen), was added to the culture medium to induce the expression of the receptor. 18 hours post induction cells were detached from the flask using ethylenediamine tetra-acetic acid (EDTA; 1:5000; InVitrogen), following several washes with phosphate buffered saline pH 7.4 and resuspended in Sorting Medium containing Minimum Essential Medium (MEM), without phenol red, and supplemented with Earles salts and 3% Foetal Clone II (Hyclone). Approximately 1×10e7 cells were examined for receptor expression by staining with a rabbit polyclonal antibody, 4a, raised against the N-terminal domain of the histamine H3 receptor, incubated on ice for 60 minutes, followed by two washes in sorting medium. Receptor bound antibody was detected by incubation of the cells for 60 minutes on ice with a goat anti rabbit antibody, conjugated with Alexa 488 fluorescence marker (Molecular Probes). Following two further washes with Sorting Medium, cells were filtered through a 50 μm Filcon™ (BD Biosciences) and then analysed on a FACS Vantage SE Flow Cytometer fitted with an Automatic Cell Deposition Unit. Control cells were non-induced cells treated in a similar manner. Positively stained cells were sorted as single cells into 96-well plates, containing Complete Medium containing 500 μg ml^−1 Zeocin™ and allowed to expand before reanalysis for receptor expression via antibody and ligand binding studies. One clone, 3H3, was selected for membrane preparation.
(ii) Membrane Preparation from Cultured Cells
All steps of the protocol are carried out at 4° C. and with pre-cooled reagents. The cell pellet is resuspended in 10 volumes of homogenisation buffer (50 mM N-2-hydroxyethylpiperazine-N′-2-ethanesulfonic acid (HEPES), 1 mM ethylenediamine tetra-acetic acid (EDTA), pH 7.4 with KOH, supplemented with 10e-6M leupeptin (acetyl-leucyl-leucyl-arginal; Sigma L2884), 25 μg/ml bacitracin (Sigma B0125), 1 mM phenylmethylsulfonyl fluoride (PMSF) and 2×10e-6M pepstain A (Sigma)). […]
A general note: GTPγS resists hydrolysis and so accumulates on activated G proteins.
For `N#Cc1ccc(Cc2ccc3c(c2)CCN(C2CCC2)CC3)cc1` [Example E1, 4-[(3-Cyclobutyl-2,3,4,5-tetrahydro-1H-3-benzazepin-7-yl)methyl]benzonitrile], the Ki was < 0.316 nM.

In the case of `O=C1CCCN1c1ccc(Cc2ccc3c(c2)CCN(C2CCC2)CC3)nc1` [Example E5, 1-{6-[(3-cyclobutyl-2,3,4,5-tetrahydro-1H-3-benzazepin-7-yl)methyl]-3-pyridinyl}-2-pyrrolidinone], the Ki was < 3.16 nM. For the compound `N#Cc1ccc(Cc2ccc3c(c2)CCN(C2CCC2)CC3)cn1` [Example E12, 5-[(3-Cyclobutyl-2,3,4,5-tetrahydro-1H-3-benzazepin-7-yl)methyl]-2-pyridinecarbonitrile], the Ki is < 3.16 nM. For `Cc1noc(-c2ccc(Cc3ccc4c(c3)CCN(C3CCC3)CC4)cc2)n1` [Example E13, 3-Cyclobutyl-7-{[4-(3-methyl-1,2,4-oxadiazol-5-yl)phenyl]methyl}-2,3,4,5-tetrahydro-1H-3-benzazepine], the Ki was < 0.316 nM. The same measure for `Cc1noc(-c2ccc(Cc3ccc4c(c3)CCN(C3CCC3)CC4)cn2)n1` [Example E14, 3-Cyclobutyl-7-{[6-(3-methyl-1,2,4-oxadiazol-5-yl)-3-pyridinyl]methyl}-2,3,4,5-tetrahydro-1H-3-benzazepine]: < 3.16 nM; for `Cc1noc(-c2cnc(Cc3ccc4c(c3)CCN(C3CCC3)CC4)cn2)n1` [Example E15, 3-Cyclobutyl-7-{[5-(3-methyl-1,2,4-oxadiazol-5-yl)-2-pyrazinyl]methyl}-2,3,4,5-tetrahydro-1H-3-benzazepine]: < 3.16 nM; for `Cc1noc(-c2ccc(Cc3ccc4c(c3)CCN(C3CCC3)CC4)nc2)n1` [Example E16, 3-Cyclobutyl-7-{[5-(3-methyl-1,2,4-oxadiazol-5-yl)-2-pyridinyl]methyl}-2,3,4,5-tetrahydro-1H-3-benzazepine]: < 3.16 nM. Next, `CN(C)C(=O)c1ccc(Cc2ccc3c(c2)CCN(C2CCC2)CC3)cc1` [Example E17, 4-[(3-Cyclobutyl-2,3,4,5-tetrahydro-1H-3-benzazepin-7-yl)methyl]-N,N-dimethylbenzamide]: < 3.16 nM. As to `O=C(c1ccc(Cc2ccc3c(c2)CCN(C2CCC2)CC3)cc1)N1CCCCC1` [Example E18, 3-Cyclobutyl-7-{[4-(1-piperidinylcarbonyl)phenyl]methyl}-2,3,4,5-tetrahydro-1H-3-benzazepine], the Ki is < 3.16 nM. For `O=C(c1ccc(Cc2ccc3c(c2)CCN(C2CCC2)CC3)cc1)N1CCOCC1` [Example E19, 3-Cyclobutyl-7-{[4-(4-morpholinylcarbonyl)phenyl]methyl}-2,3,4,5-tetrahydro-1H-3-benzazepine], the Ki is < 3.16 nM.

As for `O=C(c1cnc(Cc2ccc3c(c2)CCN(C2CCC2)CC3)cn1)N1CCCC1` [Example E20, 3-Cyclobutyl-7-{[5-(1-pyrrolidinylcarbonyl)-2-pyrazinyl]methyl}-2,3,4,5-tetrahydro-1H-3-benzazepine], the Ki is < 3.16 nM. Turning to `CC(C)NC(=O)c1cnc(Cc2ccc3c(c2)CCN(C2CCC2)CC3)cn1` [Example E21, 5-[(3-Cyclobutyl-2,3,4,5-tetrahydro-1H-3-benzazepin-7-yl)methyl]-N-(1-methylethyl)-2-pyrazinecarboxamide], the Ki was < 3.16 nM. Next, `CN(C)C(=O)c1cnc(Cc2ccc3c(c2)CCN(C2CCC2)CC3)cn1` [Example E22, 5-[(3-Cyclobutyl-2,3,4,5-tetrahydro-1H-3-benzazepin-7-yl)methyl]-N,N-dimethyl-2-pyrazinecarboxamide]: < 3.16 nM. For the compound `O=C(NCC(F)(F)F)c1cnc(Cc2ccc3c(c2)CCN(C2CCC2)CC3)cn1` [Example E23, 5-[(3-Cyclobutyl-2,3,4,5-tetrahydro-1H-3-benzazepin-7-yl)methyl]-N-(2,2,2-trifluoroethyl)-2-pyrazinecarboxamide], the Ki is < 3.16 nM.

`N#CCNC(=O)c1cnc(Cc2ccc3c(c2)CCN(C2CCC2)CC3)cn1` [Example E24, N-(Cyanomethyl)-5-[(3-cyclobutyl-2,3,4,5-tetrahydro-1H-3-benzazepin-7-yl)methyl]-2-pyrazinecarboxamide]: the Ki is < 3.16 nM. Turning to `CNC(=O)c1ccc(Cc2ccc3c(c2)CCN(C2CCC2)CC3)cn1` [Example E26, 5-[(3-Cyclobutyl-2,3,4,5-tetrahydro-1H-3-benzazepin-7-yl)methyl]-N-methyl-2-pyridinecarboxamide], the Ki is < 3.16 nM.

`NC(=O)c1ccc(Cc2ccc3c(c2)CCN(C2CCC2)CC3)cn1` [Example E27, 5-[(3-Cyclobutyl-2,3,4,5-tetrahydro-1H-3-benzazepin-7-yl)methyl]-2-pyridinecarboxamide]: the Ki is < 3.16 nM. For `O=C1CCCN1c1ccc(Cc2ccc3c(c2)CCN(C2CCC2)CC3)cc1` [Example E28, 1-{4-[(3-Cyclobutyl-2,3,4,5-tetrahydro-1H-3-benzazepin-7-yl)methyl]phenyl}-2-pyrrolidinone], the Ki was < 3.16 nM. Next, `O=C1CCCN1c1ccc(Cc2ccc3c(c2)CCN(C2CCC2)CC3)cn1` [Example E29, 1-{5-[(3-Cyclobutyl-2,3,4,5-tetrahydro-1H-3-benzazepin-7-yl)methyl]-2-pyridinyl}-2-pyrrolidinone]: < 3.16 nM; `c1cnc(Cc2ccc3c(c2)CCN(C2CCC2)CC3)cn1` [Example E30, 3-Cyclobutyl-7-(2-pyrazinylmethyl)-2,3,4,5-tetrahydro-1H-3-benzazepine]: < 3.16 nM. The same measure for `O=C1CCCN1c1cnc(Cc2ccc3c(c2)CCN(C2CCC2)CC3)cn1` [Example E31, 1-{5-[(3-Cyclobutyl-2,3,4,5-tetrahydro-1H-3-benzazepin-7-yl)methyl]-2-pyrazinyl}-2-pyrrolidinone]: < 0.316 nM. With `CC(=O)Nc1cnc(Cc2ccc3c(c2)CCN(C2CCC2)CC3)cn1` [Example E32, N-{5-[(3-Cyclobutyl-2,3,4,5-tetrahydro-1H-3-benzazepin-7-yl)methyl]-2-pyrazinyl}acetamide], the Ki was < 3.16 nM.

For `CNC(=O)c1cnc(Cc2ccc3c(c2)CCN(C2CCC2)CC3)cn1` [Example E33, 5-[(3-Cyclobutyl-2,3,4,5-tetrahydro-1H-3-benzazepin-7-yl)methyl]-N-methyl-2-pyrazinecarboxamide], the Ki was < 0.316 nM.

Take `CCNC(=O)c1cnc(Cc2ccc3c(c2)CCN(C2CCC2)CC3)cn1` [Example E34, 5-[(3-Cyclobutyl-2,3,4,5-tetrahydro-1H-3-benzazepin-7-yl)methyl]-N-ethyl-2-pyrazinecarboxamide]: the Ki is < 3.16 nM.

With `CNC(=O)c1cnc(Cc2ccc3c(c2)CCN(C2CCCC2)CC3)cn1` [Example E35, 5-[(3-Cyclopentyl-2,3,4,5-tetrahydro-1H-3-benzazepin-7-yl)methyl]-N-methyl-2-pyrazinecarboxamide], the Ki is < 3.16 nM. Take `O=C1CCCN1c1ccc(Cc2ccc3c(c2)CCN(C2CCCC2)CC3)cc1` [Example E36, 1-{4-[(3-Cyclopentyl-2,3,4,5-tetrahydro-1H-3-benzazepin-7-yl)methyl]phenyl}-2-pyrrolidinone]: the Ki was < 3.16 nM. The same measure for `O=C1CCCN1c1ccc(Cc2ccc3c(c2)CCN(C2CCCC2)CC3)cn1` [Example E37, 1-{5-[(3-cyclopentyl-2,3,4,5-tetrahydro-1H-3-benzazepin-7-yl)methyl]-2-pyridinyl}-2-pyrrolidinone]: < 3.16 nM.

In the case of `O=C1OCCN1c1ccc(Cc2ccc3c(c2)CCN(C2CCC2)CC3)cn1` [Example E39, 3-{5-[(3-Cyclobutyl-2,3,4,5-tetrahydro-1H-3-benzazepin-7-yl)methyl]-2-pyridinyl}-1,3-oxazolidin-2-one], the Ki was < 3.16 nM.
